Test results as given in ChEMBL document CHEMBL3046491, “cis-Configuration: a new tactic/rationale for neonicotinoid molecular design” (2011).

Legend:
Assay type in all cases: functional
Aphis craccivora [1] = assay: Insecticidal activity against Aphis craccivora (cowpea aphid) assessed as mortality at 500 mg/L
Nilaparvata lugens [2] = assay: Ratio of imidacloprid LC50 to compound LC50 for imidacloprid-resistant Nilaparvata lugens (brown planthopper)
Nilaparvata lugens [3] = assay: Insecticidal activity against imidacloprid-sensitive Nilaparvata lugens (brown planthopper) assessed as drug concentration required to induce mortality per pest
Nilaparvata lugens [4] = assay: Insecticidal activity against imidacloprid-resistant Nilaparvata lugens (brown planthopper) assessed as drug concentration required to induce mortality per pest
Aphis craccivora [5] = assay: Insecticidal activity against Aphis craccivora (cowpea aphid) assessed as mortality

Row | Structure (SMILES) | mortality at 500 µg/mL (Aphis craccivora [1]) [%] | further results
1 | O=[N+]([O-])C1=C2N(Cc3ccc(Cl)nc3)CCN2[C@H](c2ccco2)[C@@](C2=NCCN2Cc2ccc(Cl)nc2)([N+](=O)[O-])[C@H]1c1ccco1 | 87 | –
2 | O=[N+]([O-])C1=C2N(Cc3ccc(Cl)nc3)CCN2[C@H](c2ccco2)[C@@](C2=NCCN2Cc2ccc(Cl)nc2)([N+](=O)[O-])[C@@H]1c1ccco1 | – | RatioLC50 (Nilaparvata lugens [2]): 10
3 | O=[N+]([O-])C1=C2N(Cc3ccc(Cl)nc3)CCN2[C@@H]2CC[C@H]1O2 | – | RatioLC50 (Nilaparvata lugens [2]): 50; LC50 (Nilaparvata lugens [3]): 0.0742 ng; LC50 (Nilaparvata lugens [4]): 0.4925 ng
4 | Cl.O=[N+]([O-])/C(=C\c1ccco1)C1=NCCN1Cc1ccc(Cl)nc1 | – | RatioLC50 (Nilaparvata lugens [2]): 30; LC50 (Nilaparvata lugens [4]): 0.7312 ng
5 | CN1CC([N+](=O)[O-])=C2N(Cc3ccc(Cl)nc3)C[C@H]3CCC[C@H]3N2C1 | 30 | –
6 | O=[N+]([O-])C1=C2N(Cc3ccc(Cl)nc3)CCN2[C@H]2CCC[C@@H]1O2 | 87 | LC50 (Nilaparvata lugens [3]): 4.144 ng; LC50 (Nilaparvata lugens [4]): 18.9795 ng
7 | CN1CC([N+](=O)[O-])=C2N(CC3COCO3)CCN2C1 (centres undefined) | 0 | –
8 | CCN1CC([N+](=O)[O-])=C2N(CC3COCO3)CCN2C1 (centres undefined) | 0 | –
9 | CCCN1CC([N+](=O)[O-])=C2N(CC3COCO3)CCN2C1 (centres undefined) | 0 | –
10 | CC(C)N1CC([N+](=O)[O-])=C2N(CC3COCO3)CCN2C1 (centres undefined) | 0 | –
11 | CCCCN1CC([N+](=O)[O-])=C2N(CC3COCO3)CCN2C1 (centres undefined) | 0 | –
12 | O=[N+]([O-])C1=C2N(CC3COCO3)CCN2CN(CCO)C1 (centres undefined) | 0 | –
13 | O=[N+]([O-])C1=C2N(Cc3ccc(Cl)nc3)C[C@H]3CCC[C@H]3N2CN(CCO)C1 (relative stereo) | 30 | –
14 | CCCCN1CC([N+](=O)[O-])=C2N(Cc3ccc(Cl)nc3)C[C@H]3CCC[C@H]3N2C1 (relative stereo) | 30 | –
15 | CCCN1CC([N+](=O)[O-])=C2N(Cc3ccc(Cl)nc3)C[C@H]3CCC[C@H]3N2C1 (relative stereo) | 30 | –
16 | CC(C)N1CC([N+](=O)[O-])=C2N(Cc3ccc(Cl)nc3)C[C@H]3CCC[C@H]3N2C1 (relative stereo) | 30 | –
17 | CCN1CC([N+](=O)[O-])=C2N(Cc3ccc(Cl)nc3)C[C@H]3CCC[C@H]3N2C1 (relative stereo) | 30 | –
18 | O=[N+]([O-])/N=C1\NCCN1Cc1ccc(Cl)nc1 [IMIDACLOPRID] | – | LC50 (Aphis craccivora [5]): 31 µM; LC50 (Nilaparvata lugens [4]): 22.1614 ng
